Assay results: patent publication US20090209537A1, “AURORA INHIBITORS” (Kyowa Hakko Kirin Co., Ltd., priority 2006, published 2009)

Columns and labels:
[1] = molecular target: T1, Aurora B protein (Homo sapiens, UniProt Q96GD4); assay: Aurora B inhibitory activity (IMAP); type: biochemical; settings: at a concentration of 1 μmol/L; 10 μmol/L ATP
T1 construct: purchased Carna Biosciences
Method: The following procedure was employed to measure the Aurora B inhibitory activity.
(§1) A 20 μL sample containing Aurora B protein (Carna Biosciences) at a final concentration of 0.3 mg/mL, 20 mmol/L HEPES (pH 7.4), 0.01% Tween-20, 2 mmol/L DTT, 100 nmol/L Histone H3, 1 mmol/L magnesium acetate, 10 μmol/L ATP, 1% DMSO, and 1 μmol/L test compound was prepared and enzyme reaction was conducted at room temperature for 60 minutes. Phosphorylation reaction was detected by using IMAP Screening Express kit (Molecular Devices Corp., R8073).
(§2) While assuming the observed value of a control to which ATP was added to be 100% and the observed value of a control to which no ATP was added to be 0%, the relative activity (%) of the radio activity of a sample containing a test compound was calculated, and the difference between 100 and the obtained percentage value was assumed to be the Aurora B inhibitory rate (%) of that test compound.

[2] = molecular target: T2, Aurora A protein (Homo sapiens, UniProt O14965); assay: Aurora A inhibitory activity (IMAP); type: biochemical; settings: at a concentration of 1 μmol/L; 10 μmol/L ATP
T2 construct: purchased Carna Biosciences
T2 sequence (O14965 1-403): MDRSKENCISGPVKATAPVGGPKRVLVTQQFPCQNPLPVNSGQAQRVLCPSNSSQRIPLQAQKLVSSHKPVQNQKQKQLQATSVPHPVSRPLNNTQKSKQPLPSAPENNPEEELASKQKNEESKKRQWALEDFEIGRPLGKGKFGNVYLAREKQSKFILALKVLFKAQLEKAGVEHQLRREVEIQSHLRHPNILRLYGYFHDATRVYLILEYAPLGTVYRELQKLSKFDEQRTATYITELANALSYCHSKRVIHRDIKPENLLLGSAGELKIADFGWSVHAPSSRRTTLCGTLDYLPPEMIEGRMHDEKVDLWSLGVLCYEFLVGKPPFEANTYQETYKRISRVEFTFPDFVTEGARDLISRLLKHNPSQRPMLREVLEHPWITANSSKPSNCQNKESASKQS
Method: The following procedure was employed to measure the Aurora A inhibitory activity.
as §1, with “Aurora A” for “Aurora B”, “of 0.35” for “of 0.3”, “nmol/L PKAtide,” for “nmol/L Histone H3,”, “μmol/L adenosine-5′-triphosphate (ATP),” for “μmol/L ATP,”, “1% dimethylsulfoxide (DMSO),” for “1% DMSO,”
as §2, with “A” for “B”

[3] = system: human pancreatic cancer cell line (MIA-PaCa-2); assay: Cytostatic activity against human pancreatic cancer cell line (WST-1); type: cell-based; settings: at a concentration of 10 μmol/L, 72 hours, read-out: growth inhibitory activity
Method: The cytostatic rate of Compound (I) against a human pancreatic cancer cell line (MIA-PaCa-2) was measured according to the following procedure.
MIA-PaCa-2 cells were cultured in a minimum essential medium (MEM) (GIBCO) containing a 10% fetal calf serum (FCS).
Each well of a TC Microwell 96F plate (Nalge Nunc) was inoculated with 50 μL of MIA-PaCa-2 cells at a density of 1000 cells/well, and the cells were incubated at 37° C. for 24 hours in a 5% carbon dioxide gas incubator. To each well, 50 μL of a solution containing a test compound prepared by stepwise dilution with the incubation medium of the respective cells was added and the resulting mixture was again incubated at 37° C. for 72 hours in a 5% carbon dioxide gas incubator. To each well, 10 μL of a WST-1 reagent (4-[3-(4-iodophenyl)-2-(4-nitrophenyl)-2H-5-tetrazolio]-1,3-benzene disulfonate sodium salt) (Roche Diagnostics K. K.) was added, followed by incubation at 37° C. for 2 hours and analysis with a microplate spectrometer, SpectraMax 340PC (Molecular Devices) to determine the absorbance at 450 nm (reference wavelength: 690 nm). The cytostatic rate was determined from the equation below by assuming the absorbance of the well containing cells similarly cultured by adding a solvent of the test compound solution to be 100%. Furthermore, the observed absorbance of a blank to which WST-1 was added immediately after addition of the solvent was used.

T1 sequence (Q96GD4 whole entry): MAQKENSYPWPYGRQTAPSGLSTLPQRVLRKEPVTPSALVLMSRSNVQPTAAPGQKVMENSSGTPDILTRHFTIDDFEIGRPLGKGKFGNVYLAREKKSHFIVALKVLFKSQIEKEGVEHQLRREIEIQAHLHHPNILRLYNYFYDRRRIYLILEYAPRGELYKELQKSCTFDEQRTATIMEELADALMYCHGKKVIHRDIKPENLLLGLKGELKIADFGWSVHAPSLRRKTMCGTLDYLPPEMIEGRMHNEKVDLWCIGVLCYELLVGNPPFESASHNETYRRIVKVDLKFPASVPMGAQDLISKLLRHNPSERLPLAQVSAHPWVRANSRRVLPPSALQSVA
T1 sequence (Q9NQS7 803-918 partner limits assumed): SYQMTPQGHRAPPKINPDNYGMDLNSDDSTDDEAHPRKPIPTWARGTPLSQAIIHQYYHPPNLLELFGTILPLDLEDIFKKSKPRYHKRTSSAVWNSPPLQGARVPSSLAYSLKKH

| inhibition at 1 µM [1] [%] | inhibition at 1 µM [2] [%] | Compound | inhibition at 10 µM [3] [%] |
| --- | --- | --- | --- |
| ≥ 90 | ≥ 90 | Nc1cc(/C=C/c2n[nH]c3ccccc23)ccc1OCCN1CCOCC1 [Compound 4] | ≥ 50 |
| ≥ 90 | ≥ 90 | CC(=O)N1CCN(C(=O)c2ccc(/C=C/c3n[nH]c4ccccc34)cc2)CC1 [Compound 6] | ≥ 50 |
| ≥ 90 | ≥ 90 | COCC(=O)N1CCN(C(=O)c2ccc(/C=C/c3n[nH]c4ccccc34)cc2)CC1 [Compound 7] | ≥ 50 |
